US7005274B1, “Methods and compositions for diagnosing and treating arthritic disorders and regulating bone mass” (MIGENIX Corp., priority 1999, dated 2006)

Legend:
[1] = test system: articular chondrocytes and TC28 cells; assay: Oxygen consumption with a Clark electrode (respiratory rate); format: cell-based, human; conditions: SIN-1 500 μM; NOC-12 250 μM; antimycin A and oligomycin concentration not stated
[2] = test system: articular chondrocytes and TC28 cells; assay: Intracellular ATP, statements covering both cell preparations; format: cell-based, human; conditions: for depletion of intracellular ATP levels: 0.025 mM antimycin A or 0.02 μM oligomycin, administered every 24 hours for 72 hours; for intracellular ATP levels (qualitative): SIN-1 500 μM, NOC-12 250 μM, antimycin A and oligomycin concentration not stated; for effect on TGFβ-induced increase of intracellular ATP: antimycin A 0.025 mM or oligomycin 0.02 μM additionally present
Method: (§1) Levels of total cellular ATP were measured by a modification of luciferase-based assays known in the art (Lin et al., Anal. Biochem. 24:531–540, 1968); related assays and modifications may alternatively be used (see, e.g., Turman et al., In Vitro Cell. Dev. Biol. Anim. 32:1–4, 1996, for an assay format that uses a fluorescent plate reader). In brief, 2×10^6 cells were washed and pelleted in 10 ml phosphate-buffered saline (PBS). The cell pellets were snap-frozen in a dry ice/ethanol bath, after which […] of 0.2 M HCl was added, followed by 0.3 ml of 2 mM glycine (pH 9.0). Samples were heated at 100° C. for five minutes, then placed on ice. A standard curve was developed using 0 to 500 pmol of purified ATP (disodium salt). One hundred (100) μl of the cell extract, or purified ATP standard, was added to an equal volume of the ATP assay mixture (containing MgSO4, DTT, EDTA, luciferase and luciferin, all from the Sigma Bioluminescence Assay Kit and all diluted 1:25). Following a 5 second incubation and 15 second integration, samples were read on a TD-20/20 Luminometer (Turner Designs, Sunnyvale, Calif.).
In FIG. 1A, articular chondrocytes or TC28 cells (5×10^5) in 5 ml were studied in triplicate in the presence of antimycin (or oligomycin, see next Example) at the indicated concentrations, administered every 24 hours for a total of 72 hours, and total intracellular ATP concentrations were determined as described above. Viability determinations are shown in FIG. 1B, where 2×10^4 chondrocytes or TC28 cells in 0.2 ml were cultured in triplicate in the presence of antimycin (or oligomycin) at the indicated concentrations, administered every 24 hours for a total of 72 hours, and cell viability was determined by trypan blue dye exclusion (>200 cells counted for each replicate).

Articular Chondrocytes = assay: Intracellular ATP, luciferase assay; format: cell-based, human; conditions: 10 ng/ml TGFβ, 0.025 mM antimycin A, 0.02 μg/ml oligomycin; mean ± SD
Method: Human articular cartilage chondrocytes were obtained by collagenase digestion of articular cartilage samples, and subsequent monolayer culture, essentially as described by Terkeltaub et al. (Arthritis Rheum. 41:2152–2164, 1998). The starting material for these primary cultures was human articular cartilage excised during surgical joint replacement, or obtained at autopsy from normal or osteoarthritic joints. The articular chondrocytes were grown in Dulbecco's modified Eagle's Medium with high glucose (DMEM high glucose, Life Technologies, Inc. Grand Island, N.Y.) with 10% fetal calf serum (FCS), 1% glutamine, 100 U/ml penicillin and 50 μg/ml streptomycin (all reagents from Sigma, St. Louis, Mo., unless otherwise noted). Typically, only first passage cells were used in the studies described herein.
as §1, with “Calif.). […]” for “Calif.).”

alkaline phosphatase = assay: PPi-degrading alkaline phosphatase activity (control study); format: cell-based; conditions: not shown
NTPPPH = assay: Cell-associated NTPPPH activity (control study); format: cell-based; conditions: not shown
[3] = test system: articular chondrocytes and TC28 cells; assay: Cell viability by trypan blue dye exclusion; format: cell-based, human; conditions: 0.025 mM antimycin A or 0.02 μM oligomycin, 72 hours
Method: Nonlethal but mitochondrial effective doses of antimycin A were determined as follows. Progressively higher concentrations of antimycin A (Sigma Chemical Co., St. Louis, Mo.) were added to cultured articular condrocytes and TC-28 cells. Cell proliferation was measured by incorporation of fluorogenic H33258 (Calbiochem, La Jolla, Calif.) essentially according to the manufacturer's instructions, and cell viability was assessed by trypan blue dye exclusion (Medzihradsky et al., Biochem. Med. 13:164–177, 1975), essentially according to the instructions of the manufacturer (Sigma).
The objective of these studies was to find, if possible, a level of antimycin A that depressed total cellular ATP levels without causing more than 10% loss of viability. In FIG. 1A, articular chondrocytes or TC28 cells (5×10^5) in 5 ml were studied in triplicate in the presence of antimycin (or oligomycin, see next Example) at the indicated concentrations, administered every 24 hours for a total of 72 hours, and total intracellular ATP concentrations were determined as described above. […]

Compound | respiratory rates [1] | depletion of intracellular ATP levels [2] | intracellular ATP levels (qualitative) [2] | effect on TGFβ-induced increase of intracellular ATP [2] | ATP (pmoles/μg DNA): Articular Chondrocytes (Articular Chondrocytes) [pmoles/μg DNA] | PPi-degrading alkaline phosphatase activity (alkaline phosphatase) | cell-associated NTPPPH activity (NTPPPH) | loss of viability [3]
CC[C@H]1/C=C/C=C/C[C@@H](C)[C@H](O)[C@@](C)(O)C(=O)[C@@H](C)[C@H](O)[C@@H](C)C(=O)[C@@H](C)[C@H](O)[C@@H](C)/C=C/C(=O)O[C@@H]2[C@H](C)[C@H](CC1)O[C@]1(CC[C@H](C)[C@H](C[C@@H](C)O)O1)[C@H]2C [oligomycin] | inhibited respiratory rates | 50–80% | depressed intracellular ATP levels | this effect was blocked | 221.2 ± 14.0 | neither agent altered PPi-degrading alkaline phosphatase activity | neither oligomycin nor antimycin treatment suppressed cell-associated NTPPPH activity | less than 10%
antimycin A | inhibited respiratory rates | 50–80% | depressed intracellular ATP levels | this effect was blocked | 93.73 ± 5.9 | neither agent altered PPi-degrading alkaline phosphatase activity | neither oligomycin nor antimycin treatment suppressed cell-associated NTPPPH activity | less than 10%
